Laboratory results taken from patent US20050119338A1, “Combination of cytochome p450 dependent protease inhibitors” (priority 2001, published 2005).
Blank lines part the entries; values can stand above or below the compound they belong to.

How the values were obtained:
[1] = system: HIV-1/LAI infected MT4 cells; format: cell-based; conditions: in combination with the compound of formula (4); three molar ratios; mean of three experiments
Method: In general, combinations of two compounds can act synergistically, in an additive way or antagonistically. […] For the current invention, this was assessed in an experimental setting where the potency of different ratios of the two HIV-protease inhibitors is measured. Results were plotted in an isobologram graph according to the method described by Chou and Talalay (Adv. Enzyme Regul. 22: 27-55, 1984).
The results were analyzed according to the isobologram method described by Chou and Talalay (1984).
The results are presented as the mean of three separate experiments. The combination index (CI) for each combination was determined.

[2] = Safety and tolerability (adverse events, maculopapular rash) in clinical testing
[3] = Influence of ritonavir on the pharmacokinetics of a single dose of the compound of formula (4); conditions: human, in vivo; for AUC: mean ± SD
[4] = Panel E (1200 mg/200 mg RTV o.d.)

SMILES: CC(C)(C)NC(=O)[C@@H]1CN(Cc2cccnc2)CCN1C[C@@H](O)C[C@@H](Cc1ccccc1)C(=O)N[C@H]1c2ccccc2C[C@H]1O [indinavir]
combination index (CI) [1]: 0.87-0.92

SMILES: Cc1cccc(C)c1OCC(=O)N[C@@H](Cc1ccccc1)[C@@H](O)C[C@H](Cc1ccccc1)NC(=O)[C@H](C(C)C)N1CCCNC1=O [lopinavir]
combination index (CI) [1]: 0.85-0.95

SMILES: CC(C)c1nc(CN(C)C(=O)N[C@H](C(=O)N[C@@H](Cc2ccccc2)C[C@H](O)[C@H](Cc2ccccc2)NC(=O)OCc2cncs2)C(C)C)cs1 [ritonavir]
combination index (CI) [1]: 0.66-0.81

SMILES: CC(C)(C)NC(=O)[C@@H]1C[C@@H]2CCCC[C@@H]2CN1C[C@@H](O)[C@H](Cc1ccccc1)NC(=O)[C@H](CC(N)=O)NC(=O)c1ccc2ccccc2n1 [saquinavir]
combination index (CI) [1]: 0.94-1.0

SMILES: Cc1c(O)cccc1C(=O)N[C@@H](CSc1ccccc1)[C@H](O)CN1C[C@H]2CCCC[C@H]2C[C@H]1C(=O)NC(C)(C)C [nelfinavir]
combination index (CI) [1]: 0.61-0.80

Tmax [3]: 60 min | Tmax ([3]; 800 mg): 48 min | AUC ([3]; 800 mg, Session I: single 800 mg dose alone): 10700 ± 3130 ng·h/mL | AUC ([3]; 800 mg, Session II: single 800 mg dose with RTV): 98700 ± 38500 ng·h/mL
SMILES: CC(C)CN(C[C@@H](O)[C@H](Cc1ccccc1)NC(=O)O[C@H]1CO[C@H]2OCC[C@H]21)S(=O)(=O)c1ccc(N)cc1 [compound of formula (4), carbamic acid [(1S,2R)-3-[[(4-aminophenyl)sulfonyl](2-methylpropyl)amino]-2-hydroxy-1-(phenylmethyl)propyl]-(3R,3aS,6aR)hexahydrofuro[2,3-b]furan-3-yl ester]
subjects who developed maculopapular rash ([2]; 1200 mg t.i.d. alone): 4 out of 6 | itching of the body and/or redness of the skin [2, 4]: two other volunteers | maculopapular rash [2, 4]: one volunteer with a clear maculopapular rash | maculopapular rash ([2]; volunteers in panels A to D (with ritonavir)): No maculopapular rash was observed

SMILES: CC(C)CN(C[C@@H](O)[C@H](Cc1ccccc1)NC(=O)O[C@H]1CCOC1)S(=O)(=O)c1ccc(N)cc1 [amprenavir]
combination index (CI) [1]: 0.65-0.77
